Assay results reported in PMC9016803, “Mitochondria-targeted half-sandwich iridium(III)-Cp*-arylimidazophenanthroline complexes as antiproliferative and bioimaging agents against triple negative breast cancer cells MDA-MB-468” (RSC Advances, 2022).

Experiments:
[1] = test system: MDA-MB-468 cells; experiment: MTT in vitro cytotoxicity assay, triple negative breast cancer cells; type: cell-based; conditions: MDA-MB-468, MTT, 48 h
Experimental: The in vitro cytotoxicity of complexes IrL1–IrL5 and cisplatin were investigated using the typical 3-(4,5-dimethylthiazol-2-yl)-2,5-diphenyltetrazolium bromide (MTT) assay protocol against a panel of triple negative cancer cell line MDA-MB-468. The cells were initially incubated with the all test compounds at concentrations ranging from 0.5–50 μM for 48 h in vitro.
Cytotoxicity study of all the synthesized compounds against triple negative breast cancer cells MDA-MB-468 and immortalized human keratinocyte cell line HaCaT were done with a drug incubation period of 48 h by following standard procedure that were mentioned in ESI. ^† Preliminary studies were done to understand the mode of action of the complex to induce cytotoxicity using flow cytometric methods.
For doing the cell culture the cells were retained in DMEM media (Gibco), added with 10% fetal bovine serum (Himedia, India), 1% penicillin and streptomycin and 1% of Glutmax (Gibco, Thermo Scientific, USA) at 37°C in 5% CO2. When the cells attained 70%-80% confluency they were trypsinized using 0.25% trypsin-EDTA (Thermo Fisher Scientific, […]
In vitro cytotoxicity study was measured by standard MTT assay protocol.1 First the prepared complexes (IrL1-IrL5) were dissolved in 0.1% DMSO followed by dilution with DMEM medium. One cancer cell lines i.e. triple negative breast cancer cells (MDA-MB-468) and one normal cell line i.e. immortalized human keratinocyte cell line (HaCaT) were used for this assay. Approximately 1×10^4 cells per well were cultured in 100 μl of a growth medium in 96-well plates and then incubated under 5% CO2 atmosphere at 37°C temperature. Then the incubated cells were treated with different concentrations of the complexes in the volume of […]. The cisplatin was taken as standard positive control for this experiment. The Cells which were in the control wells, also engaged the same volume of medium containing 0.1% DMSO. After 48 h, the medium was superfluous and cell cultures were again incubated with 100 μL of MTT reagent (1 mg/ml) for 5 h at 37 °C. Then the resultant suspension was kept on micro vibrator for 10 min and the absorbance was recorded at λ = 570 nm in ELISA plate reader. The experiment was also performed in triplicate. The data were represented as the growth inhibition percentage i.e. % growth inhibition = 100 − [(AD × 100)/AB], where AD, measured absorbance in wells which contain samples and AB, measured absorbance for blank wells (cells with a medium and a vehicle). […]

[2] = Solubility study; type: physicochemical; conditions: DMSO-10% DMEM medium (1 : 99 v/v, comparable to cell media)
Experimental: Both hydrophilicity and lipophilicity studies were performed to determine the tumour-inhibiting potential of the metal complexes. These complexes were highly soluble in DMSO and moderately soluble in H2O, MeOH, EtOH and CH3CN. […] The lipophilicity of these complexes was determined by performing an n-octanol/water partition coefficient (log Po/w, where Po/w = the octanol/water partition coefficient) study using the shake flask method (Table 1).[24] The experimental log Po/w values of these complexes were determined to be in the range of 0.27–0.34 (Table 1). […] This change in the electrolytic behaviour of the complexes from 1 : 1 to 1 : 2 can be attributed to the dissociation of the Ir–Cl bond and subsequent aquation of the complexes.

[3] = test system: MDA-MB-468 cells; experiment: Mitochondrial membrane potential, JC-1 staining, flow cytometry; type: cell-based
Experimental: The cells treated with the mitochondrial uncoupler CCCP (carbonyl cyanide m-chlorophenylhydrazone), which mediates the dissipation of mitochondrial membrane potential, served as positive control for the detection of mitochondrial dysfunction. […] Unstained control represented in Fig. 10A has been used for gating purposes. […]

[4] = test system: CT-DNA; experiment: Ethidium bromide displacement (fluorescence quenching) assay; type: binding, calf
Experimental: The competitive binding of compounds IrL1 to CT-DNA was studied via fluorescence spectroscopy using ethidium bromide (EtBr) as the fluorophore. […] Intrinsic binding constant (Kb), Stern–Volmer quenching constant (Ksv) and apparent binding constant (Kapp) were highlighted in Table 2. […]
Ethidium bromide displacement assay
The ethidium bromide (EtBr) displacement assay was carried out to illustrate the mode of binding between the potent compounds with DNA.4 The apparent binding constant (K app) of the complexe IrL1 to Ct-DNA were calculated using ethidium bromide (EtBr) as a spectral probe in 5 mM Tris-HCl buffer (pH 7.4). The values of the apparent binding constant (K app) were obtained by using the equation (iii):
Kapp × [Complex]50 = kEtBr × [EtBr]⋯⋯⋯(iii)
Where KEtBr is the EtBr binding constant (K EtBr = 1.0 x 107 M-1), and [EtBr] = 8 x 10^-6 M.
Stern-Volmer equation was followed for quantitative determination of the Stern-Volmer quenching constant (K SV).5 Origin (8.5) software was used to plot the fluorescence data to obtain linear plot of I0/I vs. [complex]. The value of KSV was calculated from the following […]
Where I0 = fluorescence intensity in absence of complex and I = fluorescence intensities in presence of complex of concentration [Q].
We are acquainted with the fact that serum albumin proteins are the main component. […]

Solubility [2]: 700 µM
Substance: [Iridium(III)-Cp*-2-(naphthalen-1-yl)-1H-imidazo[4,5-f][1,10]phenanthroline]PF6 [IrL1]
IC50 [1]: 3.67 µM
cells with damaged mitochondria (JC-1 monomers) ([3]; 1 μM): 27.86%
cells with damaged mitochondria (JC-1 monomers) ([3]; 3 μM): ~47.52%
cells with damaged mitochondria (JC-1 monomers) ([3]; 5 μM): 67.02%
Ksv, Stern–Volmer quenching constant ([4]; EtBr-bound CT-DNA): 22000 M⁻¹
Kapp, apparent DNA binding constant ([4]; competitive displacement of EtBr): 2500 M⁻¹
